Where no end group is shown, it is not given here. [ ]: non-standard residue; d: D form. Aib = CC(C)(N)C(=O)O; Ahx = NCCCCCC(=O)O
Tested on: HeLa cell (Human cervix adenocarcinoma cell)
Assay: Cell membrane penetrating performance evaluation (flow cytometry of fluorescein-labelled peptide conjugates)
Assay type: cell-based
Settings: 2 μM peptide conjugate, 37° C., 2 hours, ratio to Comparative example 2 = (Fn−F1)/(F2−F1), mode values, flow cytometer
Experimental: Test example 1: Cell Membrane Penetrating Performance Evaluation
HeLa cell (Human cervix adenocarcinoma cell) was cultivated in a culture fluid containing 2 μM of the peptide conjugate of Examples 1 to 9 or Comparative examples 1 to 6 at 37° C. for 2 hours. Then, the cell was collected and stained with a propidium iodide solution to measure a fluorescence intensity using a flow cytometer, and a fluorescence intensity ratio to Comparative example 2 was calculated in accordance with the following formula.
Fluorescence intensity ratio=(Fn−F1)/(F2−F1)
Fn: Fluorescence intensity mode value of tested compound
F1: Fluorescence intensity mode value of tested compound of Comparative example 1
F2: Fluorescence intensity mode value of tested compound of Comparative example 2

| Substance | Fluorescence intensity ratio |
| --- | --- |
| F-Ahx-(cargo peptide)-(Arg)9-(Gly)3-(Leu-Leu-Aib)-NH2 (F[Ahx]CGGSGGSCRRRRRRRRRGGGLL[Aib]-NH2; not fully specified (bridges); cysteine pairing not given here) [Example 8] | 2.74 |
| F-Ahx-(cargo peptide)-(Leu-Leu-Ala)-(Gly)3-(Arg)9-NH2 (F[Ahx]CGGSGGSCLLAGGGRRRRRRRRR-NH2; not fully specified (bridges); cysteine pairing not given here) [Example 9] | 3.34 |

— US20220048953A1, “CELL-PENETRATING PEPTIDE” (KANEKA CORPORATION, priority 2018, published 2022)
